Test results reported in patent US20150183737A1, “COMPOSITIONS AND METHODS FOR SUBSTRATE-SELECTIVE INHIBITION OF ENDOCANNABINOID OXYGENATION” (Vanderbilt University, priority 2012, published 2015).
Entries after “also recorded” stand apart in the source; their conditions may differ.

Legend:
humanized rat FAAH = target: T1, humanized rat FAAH (Rattus norvegicus, UniProt P97612, A377T/F194Y/I491V/L192F/S435N/V495M); experiment: FAAH activity (Compound A); assay type: biochemical; conditions: in vitro
T1 sequence (P97612 30-579 L192F/F194Y/A377T/S435N/I491V/V495M limits assumed): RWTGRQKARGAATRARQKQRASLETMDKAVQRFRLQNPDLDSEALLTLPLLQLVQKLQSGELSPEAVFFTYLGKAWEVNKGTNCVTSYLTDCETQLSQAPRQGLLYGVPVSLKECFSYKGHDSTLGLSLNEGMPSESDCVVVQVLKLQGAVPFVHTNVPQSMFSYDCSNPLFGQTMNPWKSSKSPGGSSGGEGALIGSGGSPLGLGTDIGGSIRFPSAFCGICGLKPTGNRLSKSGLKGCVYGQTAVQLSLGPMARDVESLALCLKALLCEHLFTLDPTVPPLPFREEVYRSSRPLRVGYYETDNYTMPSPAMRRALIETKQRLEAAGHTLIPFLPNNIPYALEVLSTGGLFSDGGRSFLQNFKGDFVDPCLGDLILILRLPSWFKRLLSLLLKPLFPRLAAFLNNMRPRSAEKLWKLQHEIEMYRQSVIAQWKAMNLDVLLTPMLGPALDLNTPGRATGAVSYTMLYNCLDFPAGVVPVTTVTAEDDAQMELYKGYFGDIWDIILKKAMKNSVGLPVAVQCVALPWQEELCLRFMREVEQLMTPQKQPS

[1] = tested on: brain eCB, AA and PG levels; experiment: Brain eCB, NAE, MAG, AA and PG levels after i.p. injection; assay type: in vivo, mice
[2] = Gastrointestinal hemorrhage; conditions: in vivo
[3] = 10 mg/kg i.p. (Compound A: any dose tested), 2 hours
[4] = 2 hours after i.p administration, dose not stated

For `COc1ccc2c(c1)c(CC(=O)N1CCOCC1)c(C)n2C(=O)c1ccc(Cl)cc1` [Compound A, 2-[1-(4-Chloro-benzoyl)-5-methoxy-2-methyl-1H-indol-3-yl]-1-morpholin-4-yl-ethanone], the “Inhibition of FAAH” value (humanized rat FAAH) was “did not inhibit”, the “Whole brain AEA levels” value ([1]; 3 mg/kg i.p., 2 hours, male ICR mice) was “significantly increased” and the “Brain 2-AG levels in wild type littermates of COX-2 knockout mice” value ([1]; 10 mg/kg) was “significantly increased”. For the same compound, the “Brain 2-AG levels, meta-analysis of 12 cohorts” value ([1]; 10 mg/kg) was 109 % of vehicle, the “Brain AA or PG levels in WT or COX-2^(−/−) mice” value ([1]; 10 mg/kg) was “did not affect” and the “Brain AEA levels in wild type littermates of COX-2 knockout mice” value ([1]; 10 mg/kg) was “significantly increased”. For the same compound, the “Brain AEA, meta-analysis of 12 cohorts” value ([1]; 10 mg/kg) was 139 % of vehicle, the “Brain levels of MAGs other than 2-AG” value ([1]; 10 mg/kg) was “did not affect” and the “Brain AA levels” value [1, 3] was “did not significantly affect”. The “Brain PG levels” value [1, 3] was “did not affect”, the “Brain 2-AG levels” value ([1]; 10 mg/kg i.p. (highest dose), 2 hours, vs vehicle) was “non-significant trend to increase; also recorded: significantly increased” and the “Brain levels of NAEs other than AEA” value ([1]; 10 mg/kg i.p., 2 hours) was “not any other NAE; also recorded: no other NAE”. For the same compound, the “Brain AEA levels” value ([1]; 10 mg/kg i.p., 2 hours, vs vehicle) was “significantly increased”, the “Brain 2-AG levels (Example 8)” value [1, 4] was “without affecting” and the “Brain AEA levels (Example 8)” value [1, 4] was “increased”. The “Brain 2-AG levels after JZL-184 treatment, compared to JZL-184 alone” value ([1]; combination treatment) was “additional significant increase”, the “Brain AEA levels when combined with PF-3845, compared to PF-3845 alone” value ([1]; combination treatment) was “significant additional increase” and the “Brain or lung PG levels (Example 8)” value ([1]; dose not stated) was “did not affect”. The “Brain AEA and 2-AG levels in CB1^(−/−) mice” value ([1]; mouse, in vivo) was “significantly increased”, the “Brain PG levels in CB1^(−/−) mice” value ([1]; mouse, in vivo) was “no effect; also recorded: without affecting” and the “Ability to increase brain AEA levels in COX-2 knockout (KO) mice” value ([1]; present in wild type littermates) was “absent”. The “Brain AEA levels in WT and FAAH KO mice” value ([1]; similar extent in both genotypes) was “increased” and the Gastrointestinal hemorrhage [2] was “not to cause gastrointestinal hemorrhage”.
